Positions count from the first letter of the chain named. Read-outs that look alike come from different tables or passages of the source.
How the values were obtained:
[1] = target: T1, purified wild type MGL (wt-MGLL 6H-11-313) (Homo sapiens, UniProt Q99685)
T1 sequence (Q99685 1-303): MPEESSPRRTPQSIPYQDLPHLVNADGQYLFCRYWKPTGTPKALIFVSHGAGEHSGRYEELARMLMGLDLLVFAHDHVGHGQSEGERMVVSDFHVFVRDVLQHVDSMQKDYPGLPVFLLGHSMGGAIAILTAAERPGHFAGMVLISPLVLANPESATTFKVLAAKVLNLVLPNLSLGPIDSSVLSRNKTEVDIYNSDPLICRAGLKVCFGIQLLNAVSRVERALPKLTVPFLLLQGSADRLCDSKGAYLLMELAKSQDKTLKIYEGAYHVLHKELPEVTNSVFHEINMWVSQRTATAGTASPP

[2] = target: T2, mutant MGL (Homo sapiens, UniProt Q99685, L169S/L176S); assay: MGL ThermoFluor assay - mutant; assay type: binding
T2 sequence (Q99685 1-303 L169S/L176S): T1 sequence (Q99685 1-303) with L169S, L176S

[3] = target: T3, MGL (Rattus norvegicus, UniProt Q8R431); assay: 2-AG accumulation assay in rat brain homogenate; assay type: biochemical; settings: for 2-AG accumulation, % of vehicle control at 1 µM: read-out: Rat Brain 2AG % VehCntrl (%) @ 1 μM; for 2-AG accumulation, % of vehicle control at 0.1 µM: compound 0.1 μM, read-out: Rat Brain 2AG % VehCntrl (%) @ 0.1 μM
T3 construct: one g rat brain was homogenized using a Polytron homogenizer; from tissue; host or cells: rat brain homogenate
T3 sequence (Q8R431 1-303): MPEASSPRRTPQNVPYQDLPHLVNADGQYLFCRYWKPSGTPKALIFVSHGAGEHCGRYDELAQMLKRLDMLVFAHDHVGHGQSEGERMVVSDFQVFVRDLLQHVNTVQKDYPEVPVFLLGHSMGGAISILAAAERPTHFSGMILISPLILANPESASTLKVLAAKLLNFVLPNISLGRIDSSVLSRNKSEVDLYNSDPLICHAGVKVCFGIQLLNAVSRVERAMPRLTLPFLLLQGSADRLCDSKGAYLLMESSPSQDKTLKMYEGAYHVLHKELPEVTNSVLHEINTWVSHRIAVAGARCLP

[4] = ThermoFluor concentration-response, read-out: MGL mutant ThermoFluor Kd
[5] = rat brain homogenate, compound 1 μM, 2-AG accumulation as percent of vehicle
[6] = ThermoFluor thermal stability binding assay, read-out: MGL mutant ThermoFluor Kd
[7] = ThermoFluor, compound concentration measured by qNMR, read-out: MGL mutant ThermoFluor qKd (μM) (using qNMR conc.)
[8] = rat brain homogenate, 2-AG accumulation as percent of vehicle
[9] = compound concentration measured by qNMR, read-out: MGL mutant ThermoFluor qKd (using qNMR conc.)

Row | IC50 [1] [nM] | Kd [2, 4] [µM] | 2-AG accumulation, % of vehicle control at 1 µM [3, 5] [%] | Structure (SMILES) | other results
1 | 71 |  | 292 | O=C(c1ccc2nc(-c3ccc(F)c(F)c3)oc2c1)N1CC(N2CCN(C(=O)c3cscn3)CC2)C1 [Cpd 1178] | Kd [2, 7]: 0.238 µM
2 | 360 | 0.124 | 100 | O=C(c1ccc(-c2ccccc2)cc1)N1CCN(C2CN(C(=O)c3ccns3)C2)CC1 [Cpd 1235, 1-(Biphenyl-4-ylcarbonyl)-4-[1-(isothiazol-5-ylcarbonyl)azetidin-3-yl]piperazine] | 
3 | 725 | 0.088 | 190 | COc1cc(C(=O)N2CC(N3CCN(C(=O)c4cscn4)CC3)C2)ccc1-c1ccccc1 [Cpd 1253] | 2-AG accumulation, % of vehicle control at 0.1 µM [3, 8]: 110%; 2-AG accumulation, % of vehicle control at 10 µM ([3]; rat brain homogenate, compound 10 μM, 2-AG accumulation as percent of vehicle, read-out: Rat Brain 2AG % VehCntrl (%) @ 10 μM): 407%
4 | 390 | 0.031 | 167 | O=C(c1ccc(-c2ccccc2)cc1)N1CCN(C2CN(C(=O)c3nccs3)C2)CC1 [Cpd 1236, 1-(Biphenyl-4-ylcarbonyl)-4-[1-(1,3-thiazol-2-ylcarbonyl)azetidin-3-yl]piperazine] | 
5 | < 5 | 0.025 | 321 | O=C(c1ccc(Sc2cccc(C(F)(F)F)c2)cc1)N1CC(N2CCN(C(=O)c3cscn3)CC2)C1 [Cpd 432] | 
6 | 94 | 0.855 | 187 | O=C(c1cccc(-c2cccc(C(F)(F)F)c2)c1)N1CC(N2CCN(C(=O)c3cscn3)CC2)C1 [Cpd 1188] | 
7 | 765 |  | 187 | O=C(c1cscn1)N1CCN(C2CN(C(=O)c3cccc4nc(-c5cccc(F)c5)oc34)C2)CC1 [Cpd 1254] | Kd [2, 6]: 0.1 µM
8 | 356 | 0.394 | 226 | Cc1c(C(=O)N2CC(N3CCN(C(=O)c4nccs4)CC3)C2)cccc1-c1ccccc1 [Cpd 1234] | 
9 | 18 | 0.027 | 143 | O=C(c1ccc(-c2ccccc2)s1)N1CC(N2CCN(C(=O)c3nccs3)CC2)C1 [Cpd 1122, 1-{1-[(5-Phenylthiophen-2-yl)carbonyl]azetidin-3-yl}-4-(1,3-thiazol-2-ylcarbonyl)piperazine] | 
10 | < 5 |  | 773 | O=C(c1ccc2c(ccn2-c2ccc(OC(F)(F)F)cc2)c1)N1CC(N2CCN(C(=O)c3cscn3)CC2)C1 [Cpd 1370] | Kd [2, 7]: 0.013 µM
11 | 5 |  | 701 | O=C(c1ccc2c(ccn2-c2cc(F)c(F)c(F)c2)c1)N1CC(N2CCN(C(=O)c3cscn3)CC2)C1 [Cpd 1055] | Kd [2, 7]: 0.02 µM

Further lines, the molecule ahead of its results:

Row | Structure (SMILES) | IC50 [1] [nM] | Kd [2, 4] [µM] | 2-AG accumulation, % of vehicle control at 1 µM [3, 5] [%] | other results
12 | O=C(c1ccc(-c2ccc(C(F)(F)F)s2)cc1)N1CCN(C2CN(C(=O)c3nccs3)C2)CC1 [Cpd 1161] | 46 | 0.025 | 459 | 
13 | Cc1cc(-c2ccc(Cl)c(C(F)(F)F)c2)ccc1C(=O)N1CC(N2CCN(C(=O)c3cscn3)CC2)C1 [Cpd 254, 1-(1-{[4′-Chloro-3-methyl-3′-(trifluoromethyl)biphenyl-4-yl]carbonyl}azetidin-3-yl)-4-(1,3-thiazol-4-ylcarbonyl)piperazine] | < 5 |  | 544 | Kd [2, 6]: 0.0059 µM
14 | O=C(c1nn(-c2ccc(Cl)cc2Cl)c2c1CCC/C2=C\c1ccc(Cl)cc1)N1CC(N2CCN(C(=O)C(F)(F)F)CC2)C1 [Cpd 1020] | 63 |  |  | Kd ([2]; MGL mutant ThermoFluor Kd, ThermoFluor concentration-response): 3 µM; 2-AG accumulation, % of vehicle control at 1 µM [3]: 135%
15 | O=C(c1cnc2c(ccn2-c2ccc(F)cc2)c1)N1CC(N2CCN(C(=O)c3nccs3)CC2)C1 [Cpd 1056] | 6 |  | 498 | Kd [2, 7]: 0.012 µM
16 | Cc1c(C(=O)N2CC(N3CCN(C(=O)c4ccccc4)CC3)C2)sc2ccc(-c3ccccc3)cc12 [Cpd 570, 1-{1-[(3-Methyl-5-phenyl-1-benzothiophen-2-yl)carbonyl]azetidin-3-yl}-4-(phenylcarbonyl)piperazine] | 22 | 0.03 | 210 | 
17 | CC(C)(C)c1ccc(C(=O)N2CC(N3CCN(C(=O)c4nccs4)CC3)C2)cc1 [Cpd 672] | 17 | 0.016 | 268 | 
18 | O=C(c1ccc(Oc2cccc(Cl)c2)c(F)c1)N1CC(N2CCN(C(=O)c3nccs3)CC2)C1 [Cpd 875] | < 5 | 0.01 | 499 | 2-AG accumulation, % of vehicle control at 0.1 µM [3, 8]: 232%
19 | O=C(c1ccc(Oc2cccc(C(F)(F)F)c2)nc1)N1CC(N2CCN(C(=O)c3nccs3)CC2)C1 [Cpd 660] | 10 | 0.065 | 410 | 
20 | CC(C)Cc1ccc(C(=O)N2CC(N3CCN(C(=O)c4nccs4)CC3)C2)cc1 [Cpd 891] | < 5 | 0.008 | 422 | 
21 | O=C(c1ccc2c(ccn2-c2cc(F)cc(F)c2)c1)N1CC(N2CCN(C(=O)c3nccs3)CC2)C1 [Cpd 1371] | < 5 |  | 827 | Kd [2, 7]: 0.003 µM
22 | Cn1ccc2cc(C(=O)N3CC(N4CCN(C(=O)c5nccs5)CC4)C3)cc(-c3cccc(F)c3)c21 [Cpd 1066] | 7 |  | 609 | Kd [2, 7]: 0.031 µM
23 | Cc1sc(C(=O)N2CC(N3CCN(C(=O)c4nccs4)CC3)C2)cc1-c1ccc(F)cc1 [Cpd 1096] | 11 |  | 449 | Kd [2, 7]: 0.08 µM
24 | Cc1c(C(=O)N2CC(N3CCN(C(=O)c4nccs4)CC3)C2)sc2ccc(-c3ccccc3)cc12 [Cpd 1346, 1-{1-[(3-Methyl-5-phenyl-1-benzothiophen-2-yl)carbonyl]azetidin-3-yl}-4-(1,3-thiazol-2-ylcarbonyl)piperazine] | < 5 | 0.002 | 406 | 
25 | O=C(c1cscn1)N1CCN(C2CN(C(=O)c3sc4cc(Cl)ccc4c3C(F)(F)F)C2)CC1 [Cpd 699] | 69 | 0.041 | 253 | 
26 | O=C(c1ccc2c(ccn2-c2ccc(F)cc2)n1)N1CC(N2CCN(C(=O)c3nccs3)CC2)C1 [Cpd 1153] | 39 |  | 404 | Kd [2, 7]: 0.004 µM
27 | COc1c(C(=O)N2CC(N3CCN(C(=O)c4cscn4)CC3)C2)sc2cc(C(F)(F)F)ccc12 [Cpd 700] | 72 |  | 547 | Kd [2, 9]: 0.006 µM
28 | O=C(c1nccs1)N1CCN(C2CN(C(=O)c3nn(-c4ccc(Cl)cc4Cl)c4c3CSC/C4=C\c3ccc(F)cc3)C2)CC1 [Cpd 1021] | 15 | 0.239 | 232 | 
29 | O=C(c1ccc2c(c1)CCN(c1ncccn1)C2)N1CC(N2CCN(C(=O)c3nccs3)CC2)C1 [Cpd 668] | 15 |  | 679 | Kd [2, 6]: 0.025 µM
30 | Cc1c(C(=O)N2CC(N3CCN(C(=O)c4nccs4)CC3)C2)sc2nc(C(F)(F)F)ccc12 [Cpd 686] | 39 |  | 552 | Kd [2, 7]: 0.002 µM
31 | O=C(c1ccc(OCc2ccc3ccccc3n2)cc1)N1CC(N2CCN(C(=O)C(F)(F)F)CC2)C1 [Cpd 968] | 19 |  | 360 | Kd [2, 9]: 1.46 µM
